Source: patent US8053585B2, “Protecting group for carboxylic acids that can be photolyzed by visible light” (Cornell Research Foundation, Inc., priority 2006, dated 2011)
Where “and” joins values, the source holds several entries; their conditions need not be identical. Equal entries are not always repeated. Entries after “also recorded” stand apart in the source; their conditions may differ.

Key:
Format in all cases: physicochemical
[1] = Hydrolysis in the dark (thermal stability, UV-vis spectra); conditions: for hydrolysis at room temperature: HEK buffer pH 7.4, protected from light, 2 h; for hydrolysis on storage: buffer pH 7.4, −20° C. in the dark; for stability in water: pH 7.4 and 22° C. / physiological conditions, in the dark
[2] = Laser-flash photolysis (transient spectral measurements); conditions: for time to release the amino acid on photolysis: aqueous solution, visible region; for time constant of single-exponential absorbance decay at 460 nm: light pulse ≧400 nm, 0.8 mM, HEK buffer pH 7.4, 22° C.
Protocol: […] The energy of the beam was measured using a Molectron (Portland, Oreg.) joule meter. Light of≧400 nm produced by fluorescence from 4.9×10^−4 M Exalite 404 dye (Exciton Inc., Dayton, Ohio) was used to initiate photolysis. The decay of the transient intermediate absorbance was recorded by digitizing the photomultiplier output at rates up to 2 MHz. The transient absorption changes were monitored at a wavelength where there was significant change in the absorption on irradiation of the caged compound (ca. 460 nm). All photolysis rates and quantum yields were measured at room temperature. Nonlinear least-squares fitting of single exponential decays was used to determine the photolysis rate constants.

[3] = Quantum yield of photolysis; conditions: ≧400 nm, 250 μM, extracellular buffer pH 7.4, 22° C.
Protocol: The quantum yield for the caged compound was determined by actinometric methods (Murov, in Dekker, ed., Handbook of Photochemistry, New York, pp. 298-305 (1993), which is hereby incorporated by reference in its entirety). The Oriel (Oriel Instruments, Stratford, Conn.) lamp used for photolysis was equipped with a filter (Schott glass filter GG400; Schott North America, Inc., Elmsford, N.Y.) to eliminate light at wavelengths below 400 nm.
The quantum yield was also determined using the method published by Milburn et al., “Synthesis, Photochemistry, and Biological Activity of a Caged Photolabile Acetylcholine Receptor Ligand,” Biochemistry 28:49-55 (1989), which is hereby incorporated by reference in its entirety. For measuring the quantum yield of DECM-caged glutamate photolysis, 3 mL sample of 4 (Scheme 1) was photolyzed with repetitive light pulses at≧400 nm, and the concentration of 2 (Scheme 1) was determined spectrophotometrically. For measuring the quantum yield of DECM-caged glycine photolysis, 3 mL sample of 4 (Scheme 2) was photolyzed with repetitive light pulses at≧400 nm, and the concentration of 2 (Scheme 2) was determined spectrophotometrically. […]

[4] = UV-vis absorption spectrum of the caged compound; conditions: for ε390: 390 nm; for ε400: 400 nm
Protocol: The caged compound (1 mM) was rapidly dissolved in the buffer solution (150 mM NaCl, 1 mM CaCl2, 10 mM HEPES; the pH was adjusted to 7.4 using 5 N NaOH), and the solution was immediately transferred to a cuvette (4 mL volume, 10 mm path length) and placed in an absorption spectrometer (OLIS-14C) at 22° C. Whole spectra were recorded between 1 and 240 min after the compound was dissolved (FIGS. 1 and 7).

[5] = Solubility in water or the buffers used; conditions: physiological conditions

Row | hydrolysis on storage ([1]; 24 h) | Compound | hydrolysis at room temperature [1] | stability in water [1] | time to release the amino acid on photolysis [2] [μs] | time constant of single-exponential absorbance decay at 460 nm [2] [μs] | quantum yield of photolysis [3] | major absorption band maximum [4] [nm] | ε390 [4] [M⁻¹ cm⁻¹] | ε400 [4] [M⁻¹ cm⁻¹] | solubility in water [5] | hydrolysis on storage ([1]; 20 h)
1 | No measurable hydrolysis | CCN(CC)c1ccc2c(COC(=O)CCC(N)C(=O)O)cc(=O)oc2c1 (centres unmarked) [DECM-caged glutamate, (7-N,N-Diethylaminocoumarin-4-yl)-methyl-glutamate-trifluoroacetate] | very little hydrolysis | stable in the dark | ≤ 3 | 3 | 0.11±0.008 and 0.11±0.08 | 390 | 13651 | 12232 | sufficiently soluble in water or the buffers used; also recorded: water soluble | 
2 |  | CCN(CC)c1ccc2c(COC(=O)CN)cc(=O)oc2c1 [DECM-caged glycine, (7-N,N-Diethylaminocoumarin-4-yl)-methyl-glycine-trifluoroacetate] | very little hydrolysis | stable | ≤ 2.6 | 2.6 | 0.12±0.009 | 390 | 13869 | 12427 | water soluble | No measurable hydrolysis
